Assay: solubility in water (concentration of saturated solution)
Assay type: physicochemical
Conditions: 30° C., crystals filtered in Example 2
Method: After two hours, the reaction solution was gradually cooled and filtered at 25° C. (corresponding to the separation step of the present invention) to obtain crystals. […] The crystals were washed with water (18 g) and then washed with methyl isobutyl ketone (18 g) to obtain 109.0 g of a sodium salt of 2,2′-bis(carboxymethoxy)-1,1′-binaphthyl. For the removal of a mother liquor during the filtration, centrifugal force (small centrifuge H-122, manufactured by KOKUSAN Co., Ltd.) was utilized.

O=C([O-])COc1ccc2ccccc2c1-c1c(OCC(=O)[O-])ccc2ccccc12.[Na+].[Na+] [sodium salt of 2,2′-bis(carboxymethoxy)-1,1′-binaphthyl]
concentration of saturated solution in water: 3.8 wt %

— patent publication US20220380286A1, “METHOD FOR PRODUCING 2,2'-BIS(CARBOXYMETHOXY)-1,1'-BINAPHTHYL” (HONSHU CHEMICAL INDUSTRY CO., LTD., priority 2019, published 2022)
